From ChEMBL document CHEMBL3991601, “The target landscape of clinical kinase drugs” (Science, 2017)
The source made the active and inactive calls. Cut-off read from the data, not from the text of the source, for most assays here: actives have a measured Kd and inactives only a lower limit.

How the values were obtained:
[1] = target: Elongation factor Tu, mitochondrial (Homo sapiens, UniProt P49411)
[2] = target: T1, Calcium/calmodulin-dependent protein kinase type IV (Homo sapiens, UniProt Q16566)
T1 sequence (Q16566 whole entry): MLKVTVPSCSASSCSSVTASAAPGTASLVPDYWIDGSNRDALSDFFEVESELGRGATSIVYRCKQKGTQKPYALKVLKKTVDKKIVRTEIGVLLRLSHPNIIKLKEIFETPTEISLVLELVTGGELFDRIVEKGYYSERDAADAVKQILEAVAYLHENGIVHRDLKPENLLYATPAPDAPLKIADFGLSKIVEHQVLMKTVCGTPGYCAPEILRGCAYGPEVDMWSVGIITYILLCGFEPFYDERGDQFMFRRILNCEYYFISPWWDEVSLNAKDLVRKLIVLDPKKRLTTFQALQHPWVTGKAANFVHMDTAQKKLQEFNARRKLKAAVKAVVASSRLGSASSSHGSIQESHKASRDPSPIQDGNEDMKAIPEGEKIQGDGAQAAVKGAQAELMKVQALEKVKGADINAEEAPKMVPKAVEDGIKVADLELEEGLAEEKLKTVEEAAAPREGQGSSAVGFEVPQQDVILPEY

[3] = target: Dual specificity tyrosine-phosphorylation-regulated kinase 1A (Homo sapiens, UniProt Q13627)
DNA topoisomerase 2-beta = DNA topoisomerase 2-beta (Homo sapiens, UniProt Q02880)
Chain of DNA topoisomerase 2-beta (Q02880 whole entry): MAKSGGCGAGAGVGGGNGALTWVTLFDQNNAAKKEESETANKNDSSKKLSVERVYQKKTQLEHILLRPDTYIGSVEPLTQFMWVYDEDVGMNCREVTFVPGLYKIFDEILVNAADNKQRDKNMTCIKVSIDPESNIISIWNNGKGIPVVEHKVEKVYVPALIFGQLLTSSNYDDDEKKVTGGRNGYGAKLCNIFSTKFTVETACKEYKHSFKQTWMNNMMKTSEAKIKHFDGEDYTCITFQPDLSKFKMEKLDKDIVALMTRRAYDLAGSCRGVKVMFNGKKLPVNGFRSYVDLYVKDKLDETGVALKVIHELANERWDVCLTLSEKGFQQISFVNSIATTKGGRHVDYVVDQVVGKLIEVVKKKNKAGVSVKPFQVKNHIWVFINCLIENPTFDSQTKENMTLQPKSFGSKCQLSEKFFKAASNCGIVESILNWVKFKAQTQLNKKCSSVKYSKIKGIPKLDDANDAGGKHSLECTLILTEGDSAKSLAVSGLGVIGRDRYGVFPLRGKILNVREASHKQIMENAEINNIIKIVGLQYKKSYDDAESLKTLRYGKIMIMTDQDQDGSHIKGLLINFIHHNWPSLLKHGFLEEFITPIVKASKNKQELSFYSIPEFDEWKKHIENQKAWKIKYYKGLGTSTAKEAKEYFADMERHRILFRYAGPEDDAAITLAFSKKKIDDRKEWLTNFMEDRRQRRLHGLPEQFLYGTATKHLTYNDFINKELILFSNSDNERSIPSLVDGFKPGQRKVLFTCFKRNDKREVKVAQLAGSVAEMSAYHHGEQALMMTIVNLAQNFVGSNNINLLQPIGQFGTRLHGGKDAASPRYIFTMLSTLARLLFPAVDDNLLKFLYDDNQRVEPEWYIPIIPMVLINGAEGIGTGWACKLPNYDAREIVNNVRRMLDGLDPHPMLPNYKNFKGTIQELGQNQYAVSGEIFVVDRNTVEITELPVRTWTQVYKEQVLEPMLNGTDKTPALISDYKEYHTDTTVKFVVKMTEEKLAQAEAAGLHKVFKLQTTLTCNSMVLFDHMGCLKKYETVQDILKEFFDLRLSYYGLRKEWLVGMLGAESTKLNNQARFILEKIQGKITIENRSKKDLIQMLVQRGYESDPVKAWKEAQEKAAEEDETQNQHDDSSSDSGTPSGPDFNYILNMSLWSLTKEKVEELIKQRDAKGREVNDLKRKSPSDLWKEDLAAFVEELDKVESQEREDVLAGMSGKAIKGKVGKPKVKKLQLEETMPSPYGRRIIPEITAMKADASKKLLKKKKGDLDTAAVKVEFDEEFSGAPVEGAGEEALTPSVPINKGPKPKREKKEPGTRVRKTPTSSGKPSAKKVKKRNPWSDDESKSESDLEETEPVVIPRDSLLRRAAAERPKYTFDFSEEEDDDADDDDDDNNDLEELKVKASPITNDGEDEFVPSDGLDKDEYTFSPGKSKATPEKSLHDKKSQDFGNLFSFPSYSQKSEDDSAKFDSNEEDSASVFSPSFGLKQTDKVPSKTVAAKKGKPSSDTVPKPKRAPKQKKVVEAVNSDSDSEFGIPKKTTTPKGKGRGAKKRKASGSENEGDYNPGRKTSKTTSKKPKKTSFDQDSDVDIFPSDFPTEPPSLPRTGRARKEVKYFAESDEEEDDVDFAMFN

[4] = target: T2, RNA cytidine acetyltransferase (Homo sapiens, UniProt Q9H0A0)
T2 sequence (Q9H0A0 whole entry): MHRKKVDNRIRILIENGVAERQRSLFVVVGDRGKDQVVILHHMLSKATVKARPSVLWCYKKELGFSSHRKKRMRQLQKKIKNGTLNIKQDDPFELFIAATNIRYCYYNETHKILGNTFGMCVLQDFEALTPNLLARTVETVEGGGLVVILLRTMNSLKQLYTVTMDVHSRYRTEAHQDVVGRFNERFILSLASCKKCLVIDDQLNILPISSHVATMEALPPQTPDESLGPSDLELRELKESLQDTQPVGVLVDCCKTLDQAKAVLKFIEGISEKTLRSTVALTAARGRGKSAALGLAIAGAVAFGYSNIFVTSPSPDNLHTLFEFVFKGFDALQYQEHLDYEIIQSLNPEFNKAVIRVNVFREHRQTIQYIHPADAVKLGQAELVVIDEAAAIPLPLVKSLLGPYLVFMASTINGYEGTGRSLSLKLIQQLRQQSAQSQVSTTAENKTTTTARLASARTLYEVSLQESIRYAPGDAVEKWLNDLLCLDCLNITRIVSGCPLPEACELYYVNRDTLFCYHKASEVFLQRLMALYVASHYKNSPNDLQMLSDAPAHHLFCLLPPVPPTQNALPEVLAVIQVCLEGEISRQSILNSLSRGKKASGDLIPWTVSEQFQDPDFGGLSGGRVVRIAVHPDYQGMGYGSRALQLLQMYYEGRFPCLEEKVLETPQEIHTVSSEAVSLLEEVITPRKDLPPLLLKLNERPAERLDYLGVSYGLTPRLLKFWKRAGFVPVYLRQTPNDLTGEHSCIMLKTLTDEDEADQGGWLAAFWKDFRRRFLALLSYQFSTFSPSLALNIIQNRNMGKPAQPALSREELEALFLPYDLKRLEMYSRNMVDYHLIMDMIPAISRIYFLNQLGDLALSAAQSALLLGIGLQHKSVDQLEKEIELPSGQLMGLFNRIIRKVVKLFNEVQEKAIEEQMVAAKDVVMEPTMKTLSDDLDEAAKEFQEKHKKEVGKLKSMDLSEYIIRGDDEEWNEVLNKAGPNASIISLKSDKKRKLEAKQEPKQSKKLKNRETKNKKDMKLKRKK

Activin receptor type-1 = target: T3, Activin receptor type-1 (Homo sapiens, UniProt Q04771)
T3 sequence (Q04771 whole entry): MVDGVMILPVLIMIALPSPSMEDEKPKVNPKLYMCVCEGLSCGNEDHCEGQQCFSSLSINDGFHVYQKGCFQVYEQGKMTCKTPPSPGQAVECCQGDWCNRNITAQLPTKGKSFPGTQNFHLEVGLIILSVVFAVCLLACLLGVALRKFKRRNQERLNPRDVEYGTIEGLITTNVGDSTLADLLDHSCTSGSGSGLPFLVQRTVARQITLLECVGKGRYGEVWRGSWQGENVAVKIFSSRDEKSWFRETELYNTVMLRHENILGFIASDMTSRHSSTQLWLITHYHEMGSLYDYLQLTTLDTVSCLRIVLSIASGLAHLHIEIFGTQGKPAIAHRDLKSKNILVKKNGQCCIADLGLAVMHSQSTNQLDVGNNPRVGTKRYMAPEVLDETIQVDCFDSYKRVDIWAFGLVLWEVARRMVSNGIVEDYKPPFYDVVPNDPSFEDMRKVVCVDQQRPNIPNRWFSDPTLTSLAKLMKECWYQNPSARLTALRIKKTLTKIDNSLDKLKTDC

[5] = target: STE20-like serine/threonine-protein kinase (Homo sapiens, UniProt Q9H2G2)
Chain of STE20-like serine/threonine-protein kinase (Q9H2G2 whole entry): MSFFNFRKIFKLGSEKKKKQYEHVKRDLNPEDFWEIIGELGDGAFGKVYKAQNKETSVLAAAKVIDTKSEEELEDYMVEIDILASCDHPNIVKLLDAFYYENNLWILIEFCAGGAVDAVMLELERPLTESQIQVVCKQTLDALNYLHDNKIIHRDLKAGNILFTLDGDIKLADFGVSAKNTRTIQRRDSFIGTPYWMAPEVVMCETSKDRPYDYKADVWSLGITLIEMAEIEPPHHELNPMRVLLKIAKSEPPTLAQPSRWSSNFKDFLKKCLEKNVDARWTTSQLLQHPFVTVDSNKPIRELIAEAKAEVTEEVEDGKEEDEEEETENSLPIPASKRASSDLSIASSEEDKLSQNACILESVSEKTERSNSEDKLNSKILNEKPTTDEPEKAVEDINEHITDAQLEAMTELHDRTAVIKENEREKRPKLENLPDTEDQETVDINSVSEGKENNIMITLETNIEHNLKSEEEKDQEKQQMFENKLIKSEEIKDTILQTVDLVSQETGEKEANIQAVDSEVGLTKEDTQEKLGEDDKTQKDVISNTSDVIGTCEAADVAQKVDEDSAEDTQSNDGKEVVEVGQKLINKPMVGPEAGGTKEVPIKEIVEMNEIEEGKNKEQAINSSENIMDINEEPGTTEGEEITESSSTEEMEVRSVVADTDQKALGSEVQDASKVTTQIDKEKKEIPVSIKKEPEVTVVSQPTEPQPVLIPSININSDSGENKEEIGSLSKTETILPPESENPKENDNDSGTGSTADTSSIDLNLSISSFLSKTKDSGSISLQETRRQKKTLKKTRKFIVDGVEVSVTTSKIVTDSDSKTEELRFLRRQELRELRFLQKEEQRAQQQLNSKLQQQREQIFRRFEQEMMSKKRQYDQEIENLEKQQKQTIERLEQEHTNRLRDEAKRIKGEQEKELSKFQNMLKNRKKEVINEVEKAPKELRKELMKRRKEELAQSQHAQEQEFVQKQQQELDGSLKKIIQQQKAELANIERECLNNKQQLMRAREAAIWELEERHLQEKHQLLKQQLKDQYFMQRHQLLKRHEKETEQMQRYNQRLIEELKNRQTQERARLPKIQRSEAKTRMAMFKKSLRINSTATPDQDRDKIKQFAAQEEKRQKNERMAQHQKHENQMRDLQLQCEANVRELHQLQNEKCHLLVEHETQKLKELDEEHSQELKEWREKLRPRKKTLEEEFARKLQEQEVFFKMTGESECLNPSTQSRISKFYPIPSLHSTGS

[6] = target: T4, Serine/threonine-protein kinase A-Raf (Homo sapiens, UniProt P10398)
T4 sequence (P10398 whole entry): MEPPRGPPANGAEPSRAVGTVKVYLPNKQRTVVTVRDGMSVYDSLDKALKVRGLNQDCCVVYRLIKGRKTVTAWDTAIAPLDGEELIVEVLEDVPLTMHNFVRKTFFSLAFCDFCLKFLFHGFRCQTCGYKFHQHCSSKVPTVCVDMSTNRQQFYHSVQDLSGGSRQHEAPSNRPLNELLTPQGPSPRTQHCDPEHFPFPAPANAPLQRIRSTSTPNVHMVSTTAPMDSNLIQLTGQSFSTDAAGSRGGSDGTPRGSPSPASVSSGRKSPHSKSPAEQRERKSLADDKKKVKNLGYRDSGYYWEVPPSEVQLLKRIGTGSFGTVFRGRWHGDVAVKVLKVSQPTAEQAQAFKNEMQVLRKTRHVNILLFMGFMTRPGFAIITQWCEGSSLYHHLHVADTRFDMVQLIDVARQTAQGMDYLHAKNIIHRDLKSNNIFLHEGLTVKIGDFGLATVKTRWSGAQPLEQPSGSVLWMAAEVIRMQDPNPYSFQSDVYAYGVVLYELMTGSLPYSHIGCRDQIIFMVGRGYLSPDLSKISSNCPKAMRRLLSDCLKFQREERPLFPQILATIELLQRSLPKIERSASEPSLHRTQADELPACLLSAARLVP

[7] = target: Calcium/calmodulin-dependent protein kinase type II subunit gamma (Homo sapiens, UniProt Q13555)
Chain of Calcium/calmodulin-dependent protein kinase type II subunit gamma (Q13555 whole entry): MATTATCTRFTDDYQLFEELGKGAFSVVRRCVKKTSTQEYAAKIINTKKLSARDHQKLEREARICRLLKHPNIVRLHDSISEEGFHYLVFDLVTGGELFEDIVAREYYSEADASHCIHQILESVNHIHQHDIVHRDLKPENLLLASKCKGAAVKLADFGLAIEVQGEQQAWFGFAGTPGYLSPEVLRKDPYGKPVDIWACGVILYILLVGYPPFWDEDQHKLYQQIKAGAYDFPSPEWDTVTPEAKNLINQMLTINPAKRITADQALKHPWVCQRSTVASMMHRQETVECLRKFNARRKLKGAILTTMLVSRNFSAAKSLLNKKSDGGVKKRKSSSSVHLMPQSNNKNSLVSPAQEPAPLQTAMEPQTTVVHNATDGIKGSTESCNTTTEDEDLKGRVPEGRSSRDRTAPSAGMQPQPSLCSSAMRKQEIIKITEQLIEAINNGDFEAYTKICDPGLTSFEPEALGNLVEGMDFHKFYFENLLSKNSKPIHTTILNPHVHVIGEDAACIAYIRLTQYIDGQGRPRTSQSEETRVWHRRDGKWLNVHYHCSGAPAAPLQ

[8] = target: cAMP-dependent protein kinase catalytic subunit alpha (Homo sapiens, UniProt P17612)
Note: in the data inactive means no Kd found up to 30 µM.

Compound | Kd [1] | Kd [2] | Kd [3] | Kd (DNA topoisomerase 2-beta) | Kd [4] | Kd (Activin receptor type-1) | Kd [5] | Kd [6] | Kd [7] | Kd [8]
Cc1cc(Nc2nc(N[C@@H](C)c3ncc(F)cn3)ncc2Cl)n[nH]1 [AZD-1480] | > 30 µM (inactive) | > 30 µM (inactive) | > 30 µM (inactive) | > 30 µM (inactive) | > 30 µM (inactive) | > 30 µM (inactive) | 0.686 µM (active) | > 30 µM (inactive) | > 30 µM (inactive) | > 30 µM (inactive)
CCc1cc2c(cc1N1CCC(N3CCOCC3)CC1)C(C)(C)c1[nH]c3cc(C#N)ccc3c1C2=O [ALECTINIB] | > 30 µM (inactive) | > 30 µM (inactive) | > 30 µM (inactive) | > 30 µM (inactive) | > 30 µM (inactive) | > 30 µM (inactive) | > 30 µM (inactive) | > 30 µM (inactive) | > 30 µM (inactive) | > 30 µM (inactive)
FC(F)(F)c1ccc(CNc2ccc(Cc3c[nH]c4ncc(Cl)cc34)cn2)cn1 [PEXIDARTINIB] | > 30 µM (inactive) | > 30 µM (inactive) | > 30 µM (inactive) | > 30 µM (inactive) | > 30 µM (inactive) | > 30 µM (inactive) | > 30 µM (inactive) | > 30 µM (inactive) | > 30 µM (inactive) | > 30 µM (inactive)
